Test results as given in patent US4001238A, “1,3,4-Oxadiazole amides” (Bristol-Myers Company, priority 1976, dated 1977).

How the values were obtained:
[1] = tested on: spontaneous hypertensive rats; test: Antihypertensive activity, oral administration to spontaneous hypertensive rats; type: in vivo, rat; settings: for ED50: Rattus norvegicus, read-out: Antihypertensive Activity ED50 mm Hg
Procedure: (§1) In Table 1, antihypertensive activity was determined by oral administration to spontaneous hypertensive rats, and the in vitro and in vivo α-adrenergic receptor blocking effect was determined by tests described following Table 1.

[2] = in vivo; settings: mouse, IV, mice
[3] = target: T1, α-adrenergic receptor (Rattus norvegicus, UniProt P43140); test: Isolated rat seminal vesicle assay (inhibition of norepinephrine induced contractions; α-adrenergic receptor blocking effect in vitro); settings: for decrease in the sensitivity of isolated rat seminal vesicles to the stimulant activity of NE: 10 nanograms/ml; for NE ED50 with 95% Conf. Limits: NE ED50 in presence of test compound 10 nano/ml, control 0.89 (0.84-0.94)
T1 construct: Seminal vesicles were removed and transfered to a shallow dish containing modified Tyrode's solution; from tissue; host or cells: isolated seminal vesicle of male Long Evans rats
T1 sequence (P43140 1-466): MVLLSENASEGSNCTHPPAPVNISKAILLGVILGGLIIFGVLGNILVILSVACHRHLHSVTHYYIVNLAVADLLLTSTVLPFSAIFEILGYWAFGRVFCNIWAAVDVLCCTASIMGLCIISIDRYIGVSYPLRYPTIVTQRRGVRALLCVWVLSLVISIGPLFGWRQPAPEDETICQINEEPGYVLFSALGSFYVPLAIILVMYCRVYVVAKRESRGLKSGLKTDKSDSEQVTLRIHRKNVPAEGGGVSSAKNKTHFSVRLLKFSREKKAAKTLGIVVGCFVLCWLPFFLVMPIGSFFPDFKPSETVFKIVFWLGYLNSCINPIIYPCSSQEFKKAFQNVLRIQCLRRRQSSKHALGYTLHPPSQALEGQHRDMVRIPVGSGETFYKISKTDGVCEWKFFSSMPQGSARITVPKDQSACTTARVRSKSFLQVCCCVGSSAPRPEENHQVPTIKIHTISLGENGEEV
Procedure: as §1, with “1. In the in vitro test, the inhibition by BL-5111 of norepinephrine induced contractions of rat seminal vesicles was measured; and in the in vivo test, the inhibition by BL-5111 of norepinephrine induced pressor responses in anesthetized dogs was measured.” for “1.”
Dangan et al, Int. […] Lietch et al, Brit.
Male Long Evans rats weighing approximately 300 g. were sacrificed by a sharp blow on the head. Seminal vesicles were removed and transfered to a shallow dish containing modified Tyrode's solution. The vesicles were emptied of their contents by squeezing them gently with a pair of forceps. Silk thread (4-0) was attached to both ends of the vesicle and it was suspended in a 20 ml. muscle chamber containing modified oxygenated Tyrode's solution (g./liter: NaCl 8, KCl 0.2, CaCl2 0.26, NaHCO3 1, Na2 HPO4 0.0575, glucose 0.5 and MgCl2 0.02). The bathing fluid was maintained at 37° C. with a thermostatically controlled isolated organ tissue bath. Contractions were recorded isometrically by means of a force displacement transducer and recordings were made with a Beckman RP Dynograph. Norepinephrine (NE) was added to the muscle chamber in volumes ranging from 0.1 to 0.4 ml. with a one ml. syringe attached to a 3 inch 20 gauge needle. NE and test compounds were dissolved in deionized water.
NE dose response curves were obtained alone and in the presence of test compounds. NE was allowed to remain in contact with the strip until a maximal contraction was obtained. The strip was then washed with the perfusion fluid for 15-30 seconds and the preparation was allowed to return to base line before a subsequent dose of NE was given. Increasing amounts of NE were injected into the bath in the same manner until a complete dose response was obtained.
The seminal vesicles used to obtain the control NE dose response were discarded and new preparations were placed in the tissue bath for evaluation of the test compound. The test compound was added directly to the perfusion fluid (10 nanograms/ml.) and the strips were allowed to remain in contact with the bathing media for at least 10 minutes before the NE dose response was determined.
ED50 values for NE were obtained by regression analysis as described by Finney, Probit. Analysis, 2d Ed., Cambridge (1964). A minimum of 4 strips and at least 4 doses were employed to calculate the regression lines. The ED50 value is defined as the concentration of NE which produces a contraction equal to 50% of the maximal contraction.

[4] = tested on: α-adrenergic receptor; test: Anesthetized dog assay for α-adrenergic blocking agents (inhibition of norepinephrine induced pressor responses); type: in vivo
Procedure: as §1, with “1. In the in vitro test, the inhibition by BL-5111 of norepinephrine induced contractions of rat seminal vesicles was measured; and in the in vivo test, the inhibition by BL-5111 of norepinephrine induced pressor responses in anesthetized dogs was measured.” for “1.”
Nash, C. B., Pharmacological Research Communications, 4:423, (1969) and Maxwell, R. A., Drill's Pharmacology in Medicine, (1971) p. 683 have shown that in anesthetized dogs α-adrenergic blocking agents antagonize the blood pressure elevating effects of intravenous norepinephrine. Thus, blood pressure responses to norepinephrine (NE) in anesthetized dogs was used as a comparative assay for α-adrenergic receptor blocking properties of drugs.
Experiments were done on mongrel dogs anesthetized with sodium pentobarbital, 30 mg./kg. iv. The left femoral artery was cannulated to record aortic blood pressure and a femoral vein was cannulated for administration of drugs. All animals underwent a bilateral vagotomy. A norepinephrine dose-response curve was obtained by administering increasing doses of iv. norepinephrine (0.01 - 1 μg/kg). […] Approximately 30 minutes later a dose-response curve was again established for iv. norepinephrine (0.01-10 μg/kg).

[5] = Solubility in water; type: physicochemical; settings: in words
Procedure: Compound I can exist in two polymorphic forms. In an earlier experiment similar to Experiment E with the exception that an excess of piperazine hydrobromide was used, a water soluble form (Isomorph A) of Compound I having a M.P. of 224°-228° C. was obtained. This product was recrystallized from nitromethane to give an analytical sample of Isomorph A having a M.P. of 227°-229° C.
A 200 mg. sample of Isomorph A was dissolved in 10 ml. of water at 20° C. The solution was heated at 60° C. for 3 minutes, then cooled to 35° C. and filtered. […] This product was termed Isomorph B of Compound I.

[6] = tested on: vascular smooth muscle; settings: in words; literature; cited from earlier work
[7] = tested on: α-adrenergic receptor; settings: in words; literature; cited from earlier work
[8] = tested on: humans; test: Clinical use as antihypertensive agent (literature); type: in vivo, human; settings: lower end of clinical daily dosage range (trimazosin 150 to 500 mg, prazosin 1.5 to 15 mg)
[9] = tested on: humans; settings: clinical, in words; literature; cited from earlier work
[10] = 1 mg/kg, oral, spontaneous hypertensive rats
[11] = 3 mg/kg, oral, spontaneous hypertensive rats
[12] = 10 mg/kg, oral, spontaneous hypertensive rats
[13] = oral, spontaneous hypertensive rats
[14] = 10 nano/ml, isolated rat seminal vesicles

Structure (SMILES) | % Blood Pressure Change [1, 10] [%] | % Blood Pressure Change [1, 11] [%] | % Blood Pressure Change [1, 12] [%] | ED50 [1, 13] [mg/kg] | Percent Change From Control (NE ED50) [3, 14] [%] | decrease in the sensitivity of isolated rat seminal vesicles to the stimulant activity of NE ([3]; in words) | NE ED50 with 95% Conf. Limits ([3]; isolated rat seminal vesicles) | solubility in water [5] | also measured
COc1cc2nc(N3CCN(C(=O)c4nnc(SC)o4)CC3)nc(N)c2cc1OC.Cl [BL-5111, 4-Amino-6,7-dimethoxy-2-[4-(5-methylthio-1,3,4-oxadiazole-2-carbonyl)-piperazin-1-yl]-quinazoline hydrochloride] | -19 | -26 | -41 | 2.3 | 4.5 | essentially inactive | 0.93 (0.80-1.08) μg/ml |  | antihypertensive potency compared to prazosin ([1]; in words): comparable antihypertensive potency to prazosin; Antihypertensive Activity Ratio ([1]; relative to prazosin, oral, spontaneous hypertensive rats): 0.91; LD50 [2]: 45.7 mg/kg; Activity Ratio Relative to Prazosin ([3]; Table II, 10 nano/ml, isolated rat seminal vesicles): 0.008; α-adrenergic blocking activity relative to prazosin ([3]; conclusion from isolated rat seminal vesicles, in words): less than one percent; times less active than prazosin in causing α-adrenergic blockade ([4]; 3 mg/kg iv, anesthetized dogs): approximately 30 times; α-Adrenergic Receptor Blocking Effect, In Vivo Activity Ratio ([4]; Table 1, relative to prazosin, intravenous, anesthetized dogs): 0.04; Activity Ratio Relative to Prazosin ([4]; Table III, 3 mg/kg iv, anesthetized dogs): 0.036; peripheral α-adrenergic blocking properties ([4]; in words, in vitro and in vivo tests together (Table 1)): little or none of the peripheral α-adrenergic blocking properties shown by prazosin
COc1cc2nc(N3CCNCC3)nc(N)c2cc1OC [Isomorph A, 4-amino-6,7-dimethoxy-2-(1-piperazinyl)quinazoline] |  |  |  |  |  |  |  | water soluble | 
COc1cc2nc(N3CCNCC3)nc(N)c2cc1OC [Isomorph B, 4-amino-6,7-dimethoxy-2-(1-piperazinyl)quinazoline] |  |  |  |  |  |  |  | would not redissolve in boiling water | 
COc1cc2nc(N3CCN(C(=O)c4ccco4)CC3)nc(N)c2cc1OC [Prazosin, 2-[4-(2-furoyl)-piperazin-1-yl]-4-amino-6,7-dimethoxyquinazoline, reference compound] | -14 | -29 | -42 | 2.1 | 578 | nearly a six fold decrease | 6.03 (5.30-6.81) μg/ml |  | vasodilation effect on vascular smooth muscle [6]: direct peripheral vasodilation effect on vascular smooth muscle; peripheral α-adrenergic receptor blockade [7]: functional peripheral α-adrenergic receptor blockade
COc1cc2c(N)nc(N3CCN(C(=O)OCC(C)(C)O)CC3)nc2c(OC)c1OC [Trimazosin] |  |  |  |  |  |  |  |  | potency relative to prazosin (fold weaker) [8]: 100 fold; activity in humans as an antihypertensive agent [9]: active in humans as an antihypertensive agent
